Test results: patent US11510869B2, “Medical devices including medicaments and methods of making and using same including enhancing comfort, enhancing drug penetration, and treatment of myopia” (priority 2010, dated 2022)
Entries after “also recorded” stand apart in the source; their conditions may differ. Where two headings read alike, the source gives them in different places. Values belong to the compound of their own block, whether it stands above or below them.

Key:
myopia progression = conditions: cited from earlier work; for Control of myopia progression / Side effects: 0.01% atropine eye drops
[1] = at therapeutic doses; cited from earlier work
[2] = Ink testing of HA loaded ink; type: physicochemical
Experimental: Required amount of HA was directly added in an ink, followed by sonication for 15 minutes, thus providing HA in a polymer matrix.
In case of HA, which was HEMA monomer ink insoluble, its particulate form (without processing) is loaded in ink along with Tween 20, followed by sonication for 5 to 60 minutes.
The following table provides results of ink testing.

[3] = HA loaded ink, direct HA loading, 2% drug loading

Compound: CN1[C@@H]2CC[C@H]1C[C@@H](OC(=O)C(CO)c1ccccc1)C2 (stereo partly drawn) [Atropine]
- Control of myopia progression (myopia progression): effective in reducing the progression of myopia
- Side effects (myopia progression): cycloplegia; also recorded: Photophobia; also recorded: elevation of intraocular pressures; also recorded: Risk of angle closure glaucoma
- Control of myopia progression (myopia progression; listed as atropine): ability to control the progress of myopia; also recorded: effective in controlling myopia progression
- Side effects (myopia progression; listed as atropine): limited side effects; also recorded: minimal side effects
- Effect of discontinuation of atropine treatment (myopia progression; in some cases): rebound of myopia progression
- Progression of myopia (myopia progression; low dose atropine drops in combination with multifocal glasses): slow the progression of myopia

Compound: CCNC(=O)CCC/C=C\C[C@@H]1[C@@H](/C=C/[C@@H](O)CCc2ccccc2)[C@H](O)C[C@@H]1O [Bimatoprost]
- Systemic or local toxicity [1]: minimal systemic or local toxicity

- EST (mN/m) [2, 3]: 36.03 mN/m
- Particle/globule size (nm) [2, 3]: 1227 nm
- Viscosity (c.p.) [2, 3]: 12.6 c.p.
- pH [2, 3]: 6
- Solubility in HEMA monomer ink ([2]; HEMA monomer ink): insoluble
Compound: Hyaluronic Acid [Hyaluronic Acid (HA)]
